Reference: patent US20110305784A1, “Fractionated products obtained from gamboge resin, and medical uses of the same” (priority 2010, published 2011)
≈ marks a conversion by molar mass, not a printed value. Marks after values point to notes of the source that are not given here.

Key:
male Wistar rats [1] = test: In vivo anti-inflammation test of the fractionated products TSB-14A to TSB-14E (carrageenan hind paw edema); details: aspirin positive control, oral, three hours after carrageenan injection
Description: Briefly, male Wistar rats with a weight of around 160±5 g were randomly divided into four groups (n=5 for each group) including two experimental groups (i.e., TSB-9-W1-1 group and TSB-9-W1-2 group) and two control groups (i.e., a vehicle normal control group and an aspirin positive control group). After overnight fasting, the rats in the TSB-9-W1-1 and the TSB-9-W1-2 groups were orally administered with the formulation TSB-9-W1 at a dose of 10 mg/Kg and a dose of 30 mg/Kg, respectively, the rats in the vehicle normal control group were orally administered with 2% Tween 80 at a dosing volume of 10 mL/Kg, and the rats in the aspirin positive control group were orally administered with aspirin at a dose of 150 mg/Kg. One hour later, 0.1 mL of a 1% carrageenan suspension was intraplantarly injected into the right hind paws of rats in each group. Three hours after the intraplantar injection, the volumes of the left and right hind paws of each rat were measured using a plethysmometer (#7150, UGO Basile, Italy) including a water cell (a diameter of 25 mm; #7157, UGO Basile, Italy), and the hind paw edema volume was expressed as the difference between the measured volumes of the left and right hind paws. Inhibition rate (%) of hind paw edema in each group of rats was calculated using the following Equation (2): […]

male Wistar rats [2] = test: In vivo anti-inflammation test of formulation TSB-9-W1 (carrageenan hind paw edema); details: aspirin oral 150 mg/Kg, three hours after carrageenan injection
Description: Briefly, male Wistar rats with a weight of around 160±5 g were randomly divided into four groups (n=5 for each group) including two experimental groups ([…]1-1 group and TSB-9-W1-2 group) and two control groups (i.e., a vehicle normal control group and an aspirin positive control group). […] Three hours after the intraplantar injection, the volumes of the left and right hind paws of each rat were measured using a plethysmometer (#7150, UGO Basile, Italy) including a water cell (a diameter of 25 mm; #7157, UGO Basile, Italy), and the hind paw edema volume was expressed as the difference between the measured volumes of the left and right hind paws. […] D=(E-F)/E×100 (2) wherein D=inhibition rate of hind paw edema, • E=the average value of the hind paw edema volumes in the vehicle normal control group of rats, and • F=the average value of the hind paw edema volumes in each group of rats.

[3] = system: Human colon adenocarcinoma cell HT-29; test: cells; details: for IC50: HT-29, read-out: IC50 (50% inhibition concentration); for CC50: HT-29, read-out: LC50 (50% lethal concentration)
Excerpt: (§1) The in vitro anti-cancer test was primarily used to detect the effect of a candidate drug on cancer cell proliferation. The working principle involved therein is the ability of viable cells to shift alamarBlue (AbD Serotec, UK) from its originally non-fluorescent oxidized state (non-fluorescent, blue) to a reduced form (fluorescent, red) having fluorescence via metabolic reaction. According to the fluorescent data result generated by the alamarBlue reagent thus obtained, the proliferation of the viable cells and cell activity can be quantified for detection.
(§2) In the in vitro anti-cancer tests, a candidate drug was tested at 5 different concentrations of 0.01, 0.1, 1, 10, and 100 μg/ml, and six human cancer cell lines and a normal human cell line were used (see Table 10).

in vitro = details: human
Excerpt: as §1, §2

[4] = system: Human lung carcinoma cell A549; test: cells; details: for IC50: A549, read-out: IC50 (50% inhibition concentration); for CC50: A549, read-out: LC50 (50% lethal concentration)
Excerpt: as §1, §2

[5] = system: Human histocytic lymphoma cell U937; test: cells; details: for IC50: U-937, read-out: IC50 (50% inhibition concentration); for CC50: U-937, read-out: LC50 (50% lethal concentration)
Excerpt: as §1, §2

[6] = system: Human breast adenocarcinoma cell MCF7; test: cells; details: for IC50: MCF7, read-out: IC50 (50% inhibition concentration); for CC50: MCF7, read-out: LC50 (50% lethal concentration)
Excerpt: as §1, §2

[7] = system: Human umbilical venal epithelial cell (HUVEC); test: cells; details: Homo sapiens, HUVEC, read-out: IC50 (50% inhibition concentration)
Excerpt: as §1, §2

[8] = system: Human promyelocytic leukemia cell HL-60; test: cells; details: for IC50: HL-60, read-out: IC50 (50% inhibition concentration); for CC50: HL-60, read-out: LC50 (50% lethal concentration)
Excerpt: as §1, §2

[9] = system: Human hepatocellular carcinoma cell HepG2; test: cells; details: for IC50: HepG2, read-out: IC50 (50% inhibition concentration); for CC50: HepG2, read-out: LC50 (50% lethal concentration)
Excerpt: as §1, §2

male CD-1 (Crl.) mice [10] = test: In vivo analgesia test of the fractionated products TSB-14A to TSB-14E (formalin, hind paw licking); parameters: concentration or dose not given beside the values; details: morphine positive control, oral
male CD-1 (Crl.) mice [11] = test: In vivo analgesia test of formulation TSB-9-W (formalin, hind paw licking); details: morphine oral 30 mg/Kg
Description: The formulation TSB-9 was milled to obtain a formulation TSB-9-W having a particle size of around 10 μm, and an in vivo analgesia test of the formulation TSB-9-W was performed by the MDS Pharma Services.
Briefly, male CD-1 (Crl.) mice were randomly divided into three groups (n=5 for each group) including an experimental group (i.e., TSB-9-W group) and two control groups (i.e., a vehicle normal control group and a morphine positive control group). The mice in the TSB-9-W group were orally administered with the formulation TSB-9-W at a dose of 100 mg/Kg, the mice in the vehicle normal control group were orally administered with 2% Tween 80 at a dosing volume of 10 mL/Kg, and the mice in the morphine positive control group were orally administered with morphine at a dose of 30 mg/Kg. One hour later, 0.02 mL of a 2% formalin solution was subplantarly injected into the hind paws of mice in each group, and the hind paw licking times for each mouse were counted at the time intervals of 0-5 minutes and 15-30 minutes after formalin injection. Inhibition rate (%) of hind paw licking in each group of mice was calculated using the following Equation (1):
wherein A=inhibition rate of hind paw licking (%), • B=the average value of the hind paw licking times in the vehicle normal control group of mice, and • C=the average value of the hind paw licking times in each group of mice.

[12] = 0-5 minutes after formalin injection

| SMILES | IC50 [3] [µg/mL] | CC50 [3] [µg/mL] | CC50 (in vitro) [µg/mL] | IC50 [4] [µg/mL] | CC50 [4] [µg/mL] | IC50 [5] [µg/mL] | CC50 [5] [µg/mL] | IC50 [6] [µg/mL] | CC50 [6] [µg/mL] | IC50 [7] [µg/mL] | IC50 [8] [µg/mL] | CC50 [8] [µg/mL] | IC50 [9] [µg/mL] | CC50 [9] [µg/mL] | also measured |
| --- | --- | --- | --- | --- | --- | --- | --- | --- | --- | --- | --- | --- | --- | --- | --- |
| CC(=O)Oc1ccccc1C(=O)O [Aspirin, aspirin] | – | – | – | – | – | – | – | – | – | – | – | – | – | – | Inhibition rate of hind paw edema (%) (male Wistar rats [1]): 37* %; Inhibition rate of hind paw edema (%) (male Wistar rats [2]): 40* % |
| CC(C)=CCc1c2c(c(O)c3c1O[C@]14C(=C[C@@H]5CC1C(C)(C)OC4(C/C=C(/C)C(=O)O)C5=O)C3=O)C=C[C@@](C)(C/C=C/C(C)(C)O)O2 [Gh-3272, formoxanthone H] | 0.36 (≈ 0.558 µM) | 6.6 (≈ 10.2 µM) | 2.5 (≈ 3.88 µM) | 1.7 (≈ 2.64 µM) | 4.7 (≈ 7.29 µM) | 0.16 (≈ 0.248 µM) | 0.43 (≈ 0.667 µM) | 0.73 (≈ 1.13 µM) | 2.8 (≈ 4.34 µM) | 0.12 (≈ 0.186 µM) | 1.7 (≈ 2.64 µM) | 5.1 (≈ 7.91 µM) | 1.2 (≈ 1.86 µM) | 3.7 (≈ 5.74 µM) | – |
| C=C(C)C(O)CC[C@]1(C)C=Cc2c(O)c3c(c(CC=C(C)C)c2O1)O[C@]12C(=C[C@@H]4CC1C(C)(C)OC2(C/C=C(/C)C(=O)O)C4=O)C3=O (some centres unmarked) [Gh-3291, formoxanthone D] | 0.081 (≈ 0.126 µM) | 4.7 (≈ 7.29 µM) | 1.4 (≈ 2.17 µM) | 0.62 (≈ 0.962 µM) | 3.3 (≈ 5.12 µM) | 0.22 (≈ 0.341 µM) | 0.61 (≈ 0.946 µM) | 0.45 (≈ 0.698 µM) | 2.8 (≈ 4.34 µM) | 0.34 (≈ 0.527 µM) | 4.5 (≈ 6.98 µM) | 30 (≈ 46.5 µM) | 0.65 (≈ 1.01 µM) | 8.7 (≈ 13.5 µM) | – |
| CC(C)=CCC[C@@]1(C)C=Cc2c(O)c3c(c(C(O)C4OC4(C)C)c2O1)O[C@]12C(=C[C@@H]4CC1C(C)(C)OC2(C/C=C(/C)C(=O)O)C4=O)C3=O (some centres unmarked) [Gh-3311, epiformoxanthone G] | 7.9 (≈ 12 µM) | 38 (≈ 57.5 µM) | 13.9 (≈ 21 µM) | 5 (≈ 7.57 µM) | 21.2 (≈ 32.1 µM) | 1.9 (≈ 2.88 µM) | 5.4 (≈ 8.17 µM) | 8 (≈ 12.1 µM) | 14 (≈ 21.2 µM) | 4 (≈ 6.05 µM) | 1.4 (≈ 2.12 µM) | 2.2 (≈ 3.33 µM) | 7.9 (≈ 12 µM) | 25.6 (≈ 38.7 µM) | – |
| CC(C)=CCc1c2c(c(O)c3c1O[C@]14C(=C[C@@H]5CC1C(C)(C)OC4(C/C=C(\C)C(=O)O)C5=O)C3=O)C=CC(C)(C/C=C\C(C)(C)O)O2 (some centres unmarked) [Gh-3332, isoformoxanthone I] | 0.85 (≈ 1.32 µM) | 73.8 (≈ 114 µM) | 3.3 (≈ 5.12 µM) | 1.3 (≈ 2.02 µM) | 4.6 (≈ 7.13 µM) | 0.23 (≈ 0.357 µM) | 1.4 (≈ 2.17 µM) | 0.87 (≈ 1.35 µM) | 3.3 (≈ 5.12 µM) | 0.11 (≈ 0.171 µM) | 11.8 (≈ 18.3 µM) | 30.5 (≈ 47.3 µM) | 6.7 (≈ 10.4 µM) | 19.6 (≈ 30.4 µM) | – |
| CC(C)=CCC[C@@]1(C)C=Cc2c(O)c3c(c(CC4OC4(C)C)c2O1)O[C@]12C(=C[C@@H]4CC1C(C)(C)OC2(C/C=C(/C)C(=O)O)C4=O)C3=O (some centres unmarked) [Gh-3351, epiformoxanthone E] | 1.9 (≈ 2.95 µM) | 72.6 (≈ 113 µM) | 3.3 (≈ 5.12 µM) | 0.77 (≈ 1.19 µM) | 3.4 (≈ 5.27 µM) | 0.24 (≈ 0.372 µM) | 0.62 (≈ 0.962 µM) | 0.99 (≈ 1.54 µM) | 3.8 (≈ 5.89 µM) | 0.11 (≈ 0.171 µM) | 11.7 (≈ 18.1 µM) | 22.1 (≈ 34.3 µM) | 2.9 (≈ 4.5 µM) | 31.2 (≈ 48.4 µM) | – |
| CC(C)=CCC[C@]1(C)C=Cc2c(O)c3c(c(CC4OC4(C)C)c2O1)O[C@]12C(=C[C@@H]4CC1C(C)(C)OC2(C/C=C(/C)C(=O)O)C4=O)C3=O (some centres unmarked) [Gh-3352, formoxanthone E] | 0.18 (≈ 0.279 µM) | 0.68 (≈ 1.05 µM) | 0.85 (≈ 1.32 µM) | 0.18 (≈ 0.279 µM) | 0.99 (≈ 1.54 µM) | 0.11 (≈ 0.171 µM) | 0.26 (≈ 0.403 µM) | 0.075 (≈ 0.116 µM) | 1.8 (≈ 2.79 µM) | 0.084 (≈ 0.13 µM) | 0.26 (≈ 0.403 µM) | 0.93 (≈ 1.44 µM) | 0.16 (≈ 0.248 µM) | 2 (≈ 3.1 µM) | – |
| CC(C)=CCC[C@]1(C)C=Cc2c(O)c3c(c(C(O)C4OC4(C)C)c2O1)O[C@]12C(=C[C@@H]4CC1C(C)(C)OC2(C/C=C(/C)C(=O)O)C4=O)C3=O (some centres unmarked) [Gh-3353, formoxanthone G] | 5 (≈ 7.57 µM) | 20.8 (≈ 31.5 µM) | 8.4 (≈ 12.7 µM) | 2.6 (≈ 3.93 µM) | 8.2 (≈ 12.4 µM) | 4.8 (≈ 7.26 µM) | 14.6 (≈ 22.1 µM) | 2.4 (≈ 3.63 µM) | 9.6 (≈ 14.5 µM) | 5.5 (≈ 8.32 µM) | 1.3 (≈ 1.97 µM) | 2.4 (≈ 3.63 µM) | 5.3 (≈ 8.02 µM) | 35.5 (≈ 53.7 µM) | – |
| CN1CC[C@]23c4c5ccc(O)c4O[C@H]2[C@@H](O)C=C[C@H]3[C@H]1C5 [Morphine, morphine] | – | – | – | – | – | – | – | – | – | – | – | – | – | – | Inhibition rate of hind paw licking (%) (male CD-1 (Crl.) mice [10]; [12]): 62* %; Inhibition rate of hind paw licking (%) (male CD-1 (Crl.) mice [10]; 10-15 minutes after formalin injection): 89* %; Inhibition rate of hind paw licking (%) (male CD-1 (Crl.) mice [10]; 15-20 minutes after formalin injection): 81* %; Inhibition rate of hind paw licking (%) (male CD-1 (Crl.) mice [10]; 20-25 minutes after formalin injection): 68* %; Inhibition rate of hind paw licking (%) (male CD-1 (Crl.) mice [10]; 25-30 minutes after formalin injection): 0%; Inhibition rate of hind paw licking (%) (male CD-1 (Crl.) mice [11]; [12]): 100* %; Inhibition rate of hind paw licking (%) (male CD-1 (Crl.) mice [11]; 15-30 minutes after formalin injection): 100* % |
